The structures appear in SMILES notation. Non-standard residues stand in square brackets, D forms with d. Residues, ends and D or L forms follow the SMILES beside them. *: point of attachment. Phenylacetyl(2,3,4,5,6-F5) = O=C(Cc1c(F)c(F)c(F)c(F)c1F)*; Phe(F5) = N[C@@H](Cc1c(F)c(F)c(F)c(F)c1F)C(=O)O; hArg = N=C(N)NCCCC[C@H](N)C(=O)O; 12Ado = NCCCCCCCCCCCC(=O)O; Nle = CCCC[C@H](N)C(=O)O; Orn = NCCC[C@H](N)C(=O)O; Abu = CC[C@H](N)C(=O)O; PhAc = O=C(Cc1ccccc1)*

The test system of one assay is NCI-N87 xenograft. Nature of the assay: Xenograft tumor growth in nude mice, stomach cancer N87. It counts as in vivo. As to conditions: Panel D, 10 weeks. As for the experimental part: The peptides' activity was compared with GHRH antagonist MIA-602. All statistical analyzses were performed from comparing GHRA antagonists to non-treated tumor (control).
Peptides and chemicals. GHRH antagonists MIA-602 and AVR-GHRH antagonists (see Table 2 above) were synthesized by solid phase methods and purified by HPLC. The peptides were dissolved in DMSO and further diluted in 10% 1, 2-propanediol. The final concentration of peptides was 50 µg/ml in 10% 1, 2-propanediol containing 0.1% of DMSO.
Cell culture. Human cancer cell lines including pancreatic (PANC-1 and CFPAC-1), lung (HCC827 and H460), stomach (NCI-N87), prostate (PC3), brest (MX-1 and HCC-1806), colorectal (HT-29), and ovarian (SK-OV-3 and OVCAR-3) were obtained from the American Type Culture Collection (ATCC) and cultured at 37° C. in a humidified 95% air/5% CO2 atmosphere in the medium recommended by ATCC.
Xenograft models of human cancers in nude mice. Female athymic (NCr nu/nu) nude mice, 5-to 6-weeks-old, obtained from the Envigo labs (Tampa, FL), were housed in laminar airflow cabinets under pathogen-free conditions with a 12-h light/12-h dark schedule, and were fed autoclaved standard chow and water. To generate mice with xenografted tumors, tumor xenografts were initiated by subcutaneous (s.c.) injection of […] human cancer cells into female nude mice. After about 4 weeks the resulting tumors were dissected and collected after removing necrosis tissues. The tumors were then cut into particles with size of ˜3 mm3 and transplanted s.c. by trocar needle into experimental animals. When tumors grew to the size of 50-60 mm3 (by volume), […] of 5 μg of GHRH antagonists MIA-602 or AVR-compounds (2-10 μg as indicated), or vehicle solutions (0.1% DMSO in 10% 1, 2-propanediol) respectively. Tumor sizes were measured weekly.
Statistical analysis. One-way ANOVA followed by Bonferroni comparison were performed. Data are expressed as Mean±SEM. To determine statistical significance between animal groups, two-tailed Student's t-test was conducted. Differences were considered significant when p<0.05.
Results. […] FIG. 1A-N represents in vivo inhibition of tumor growth during the treatment with GHRH antagonist MIA-602 and selected AVR antagonists in nude mice xenografted with various human tumors including pancreatic cancer PANC-1 (FIG. 1A) and CFPAC-1 (FIG. 1I); lung cancer HCC827 (FIGS. 1B, C) and H460 (FIG. 1H); stomach cancer N87 (FIGS. 1D-F); colon cancer HT-29 (FIG. 1G); breast cancer MX-1 and HCC-1806 (FIGS. 1J, K); ovarian cancer SK-OV-3 and OVACAR-3 (FIGS. 1L, M) and prostate cancer PC3 (FIG. 1N). See also Table 5.

For a further assay, the system named is MX-1 cells. The experiment in a line: In vitro cell viability, breast cancer MX-1. As to conditions: 5 μM, 72 h. The assay is classed as cell-based, human. How it is done:
The inhibitory effects of the various synthesized GHRH antagonists were tested in cell proliferation assays in various human cancer cell lines including stomach cancer (KATOIII, N87), colon cancer (HT-29), urothelial cancer (J82, RT4), pancreatic cancer (PANC-1, CFPAC-1), prostatic cancer (PC3), breast cancer (MX-1, HCC1806), ovarian cancer (SK-OV-3, OVCAR-3) and lung cancer (HCC827, H460).
Cell culture. Human cancer cell lines including pancreatic (PANC-1 and CFPAC-1), lung (HCC827 and H460), stomach (NCI-N87 and KATOIII), urothelial (J82, RT4), prostatic (PC3), breast (MX-1 and HCC 1806), colorectal (HT-29), and ovarian (SK-OV-3 and OVCAR-3) were obtained from the American Type Culture Collection (ATCC) and cultured at 37° C. in a humidified 95% air/5% CO2 atmosphere in the medium recommended by ATCC.
In vitro cell viability. Cell viability was analyzed as follows: cancer cells including pancreatic (PANC-1 and CFPAC-1), lung (HCC827 and H460), stomach (NCI-N87 and KATOIII), urothelial (J82, RT4), prostatic (PC3) and breast (MX-1 and HCC 1806), colorectal (HT-29) and ovarian (SK-OV-3 and OVCAR-3) were grown on 96 well plates to ˜60% confluence, the cells were starved for 24 h in culture medium containing 0.5% FBS. Cells were then treated with GHRH antagonists MIA602 AVR compounds at concentrations of 1, 2.5 or 5 μM, or vehicle (0.1% DMSO) in quintuplicates for 72 hours. The medium was replaced every 48 hours. Cell viability was measured using CellTiter 96 aqueous one solution kit (Promega). Inhibitory effects of tested AVR compounds in comparison to that of MIA602 are presented as inhibitory potency.
Inhibitory effects of selected AVR compounds in comparison to that of MIA602 are presented as inhibitory potency (e.g., percentage of inhibition). […] The cell lines tested including lung cancer HCC827 (FIG. 2A), pancreatic cancer CFPAC-1 (FIG. 2B), stomach cancer N87 (FIG. 2C), colon cancer HT-29 (FIG. 2D), breast cancers MX-1 and HCC1806 (FIGS. 2E, F). Based on the results of cell proliferation assay after cancer cells were treated with antagonist at concentration of 5 μM for 72H, the relative inhibitory potency of AVR antagonists in comparison to MIA-602 is summarized in Table 3 A and B. Over 60 AVR compounds were tested in 12 cancer cell lines.
Based on the results of cell proliferation assay after cancer cells were treated with antagonist at concentration of 5 µM for 72H, * at concentration of 2 µM for 72 H.

The subject of assay [1] is mouse lung fibroblasts (Mlg 2908). Nature of the assay: Cellular respiration, Seahorse XF Cell Mito Stress Test. It counts as cell-based. As to conditions: 24 hours. How it is done:
Lung fibroblasts. Newborn mouse lung fibroblasts (Mlg 2908) were obtained from the American Type Culture Collection, Manassas, VA and cultured in Eagle's minimal essential medium. Cells were grown in 6-well plates before incubation with 1 or 5 μM MIA-602 or vehicle, RNA isolation, and oxygen consumption measurements.
Cellular respiration. The effects of MIA-602 on mouse lung fibroblast oxygen consumption was measured using the Agilent Seahorse XF Cell Mito Stress Test (Agilent Technologies, Santa Clara, CA) (Divakaruni A, Paradyse A, Ferrick D, Murphy A, Jastroch M (2014). Methods in Enzymology 547:309-354). Fibroblasts were incubated with vehicle, 1 or 5 μM MIA-602 for 24 hours before measurement of oxygen consumption. One day before assay 80,000 fibroblasts were seeded into Seahorse 24-well plates (n=6 wells per condition). Basal respiration was established and oligomycin, FCCP and rotenone plus antimycin A were added sequentially to measure ATP production, uncoupled respiration; and, non-mitochondrial oxygen consumption (Wangpaichitr, Wu C, Li Y, Nguyen D, Kandemir H, Shah S, Chen S, Feun L, Prince J, Kuo M, Savaraj N (2017). Oncotarget 8(30):49275-49292).

As for `CCCC[C@H](NC(=O)[C@@H](NC(=O)[C@H](CC(=O)O)NC(=O)[C@H](CCC(N)=O)NC(=O)[C@H](CC(C)C)NC(=O)[C@H](CC(C)C)NC(=O)[C@H](CCCCN)NC(=O)[C@H](CCCNC(=N)N)NC(=O)[C@H](C)NC(=O)[C@H](CO)NC(=O)[C@H](CC(C)C)NC(=O)[C@H](CCC(N)=O)NC(=O)[C@H](CC)NC(=O)[C@H](CC(C)C)NC(=O)[C@@H](NC(=O)[C@H](CCCCN)NC(=O)[C@H](CCCNC(=N)N)NC(=O)[C@H](Cc1ccc(OC)cc1)NC(=O)[C@H](CCCCNC(=N)N)NC(=O)[C@H](C)NC(=O)[C@@H](NC(=O)[C@H](Cc1c(F)c(F)c(F)c(F)c1F)NC(=O)[C@@H](NC(=O)[C@H](C)NC(=O)[C@H](CC(=O)O)NC(=O)[C@@H](CCCNC(=N)N)NC(=O)[C@H](Cc1ccc(O)cc1)NC(=O)CCCCCCCCCCCNC(=O)Cc1c(F)c(F)c(F)c(F)c1F)[C@@H](C)CC)[C@@H](C)O)C(C)C)[C@@H](C)CC)C(=O)N[C@H](CCCNC(=N)N)C(=O)N[C@@H](CCCCNC(=N)N)C(=O)NC` [AVR-235] ({Phenylacetyl(2,3,4,5,6-F5)-12Ado}-Y[dR]DAI[Phe(F5)]TA[hArg]Y(Me)RKVL[Abu]QLSARKLLQDI[Nle][dR][hArg]-NHMe), the “Tumor Growth %” value with NCI-N87 xenograft (2 μg/day s.c.) turned out to be 558.60%.

On to `CCCC[C@H](NC(=O)[C@@H](NC(=O)[C@H](CC(=O)O)NC(=O)[C@H](CCC(N)=O)NC(=O)[C@H](CC(C)C)NC(=O)[C@H](CC(C)C)NC(=O)[C@H](CCCN)NC(=O)[C@H](Cc1c[nH]cn1)NC(=O)[C@H](C)NC(=O)[C@H](CO)NC(=O)[C@H](CC(C)C)NC(=O)[C@H](CCC(N)=O)NC(=O)[C@H](CC)NC(=O)[C@H](CC(C)C)NC(=O)[C@@H](NC(=O)[C@H](CCCN)NC(=O)[C@H](Cc1c[nH]cn1)NC(=O)[C@H](Cc1ccc(OC)cc1)NC(=O)[C@H](CCCCNC(=N)N)NC(=O)[C@H](C)NC(=O)[C@@H](NC(=O)[C@H](Cc1c(F)c(F)c(F)c(F)c1F)NC(=O)[C@@H](NC(=O)[C@H](C)NC(=O)[C@H](CC(=O)O)NC(=O)[C@@H](CCCNC(=N)N)NC(=O)[C@H](Cc1ccc(O)cc1)NC(=O)CCCCCCCCCCCNC(=O)Cc1ccccc1)[C@@H](C)CC)[C@@H](C)O)C(C)C)[C@@H](C)CC)C(=O)N[C@H](CCCNC(=N)N)C(=O)N[C@@H](CCCCNC(=N)N)C(N)=O` [MIA-602, PhAC-Ada, Tyr D-Arg, Asp, Ala, Ile, 5FPhe, Thr, Ala, Har, Tyr(Me), His, Orn, Val, Leu, Abu, Gin, Leu, Ser, Ala, His, Orn, Leu, Leu, Gin, Asp, Ile, Nle, D-Arg, Har NH2, reference compound] ({PhAc-12Ado}-Y[dR]DAI[Phe(F5)]TA[hArg]Y(Me)H[Orn]VL[Abu]QLSAH[Orn]LLQDI[Nle][dR][hArg]-NH2), for which, in the assay with MX-1 cells (Table 3B), the “In vitro relative inhibitory potency in comparison to MIA-602, MX-1” value is on record as 1. In addition, in the assay with MX-1 cells (relative to MIA602 = 1, Table 3A), the “Relative inhibitory potency, Breast MX-1” value turned out to be 1. Also, the “Tumor Growth %” value in the assay on NCI-N87 xenograft (2 μg/day s.c.) is 1065.00%; with NCI-N87 xenograft (5 μg/day s.c.), 767.00%. Also, the % Inhibition (as a rule, the change of the read-out against control, counted positive when it falls) in the assay with NCI-N87 xenograft (2 μg/day s.c., vs control) is 13.0%. The “Spare respiratory capacity” value in assay [1] (5 μM) is given as “increased”. In addition, in assay [1] (5 μM, compared to vehicle), the “Basal oxygen consumption / basal respiration” value was “increased basal oxygen consumption”. The “Maximal, uncoupled respiration after FCCP” value in assay [1] (5 μM, compared to vehicle) is listed as “increased”. Also, in assay [1] (1 and 5 μM), the “Non-mitochondrial respiration after antimycin A and rotenone” value was “appeared to increase non-mitochondrial respiration”.

These data come from patent US11993640B2, “Treating inflammatory lung disease” (United States Government as represented by the Department …, priority 2019, dated 2024).
